Measured values: PubChem BioAssay AID1745844 (Carcinogenic Potency Database (CPDB), 2022)
“And” between values parts separate entries of the source, which are not always exact repeats. Equal values may be shown once. The source made the active and inactive calls. No rule for the calls is given here.

Tested on: rodent lifetime carcinogenesis bioassay, tumor incidence TD50
Test: carcinogenic potency in animals, long-term in vivo studies, CPDB compilation (AID 1745844)

In the case of C[C@@H]1O[C@@H](OC[C@H]2O[C@@H](Oc3c(-c4ccc(O)c(O)c4)oc4cc(O)cc(O)c4c3=O)[C@H](O)[C@@H](O)[C@@H]2O)[C@H](O)[C@H](O)[C@H]1O, the TD50 (hamster, strain Syrian Golden, females, in feed, site: adrenal gland, lesion: cortical adenoma, dosed 104 weeks, study length 104 weeks) is reported as 132000 mg/kg/day (inactive), the TD50 (hamster, strain Syrian Golden, females, in feed, site: uterus, lesion: leiomyoma, dosed 104 weeks, study length 104 weeks) is reported as 140000 mg/kg/day (inactive) and the carcinogen call (hamster, strain Syrian Golden, males, in feed, site: adrenal gland, lesion: cortical adenoma, dosed 104 weeks, study length 104 weeks) is reported as “negative (inactive)”. The carcinogen call (hamster, strain Syrian Golden, males, in feed, site: forestomach, lesion: papilloma, dosed 104 weeks, study length 104 weeks) was “negative (inactive)”, the TD50 (rat, strain ACI, females, in feed, site: adrenal gland, lesion: pheochromocytoma, dosed 121 weeks, study length 121 weeks) was 90400 mg/kg/day (inactive) and the TD50 (rat, strain ACI, females, in feed, site: heart, lesion: sarcoma, dosed 121 weeks, study length 121 weeks) was 90400 mg/kg/day (inactive). The TD50 (rat, strain ACI, females, in feed, site: pituitary gland, lesion: adenoma, dosed 77 weeks, study length 77 weeks) was 8910 mg/kg/day (inactive), the TD50 (rat, strain ACI, females, in feed, site: urinary bladder, lesion: papilloma, dosed 77 weeks, study length 77 weeks) was 8910 mg/kg/day (inactive) and the TD50 (rat, strain ACI, males, in feed, site: adrenal gland, lesion: cortical adenoma, dosed 77 weeks, study length 77 weeks) was 5710 mg/kg/day (inactive). For the same compound, the TD50 (rat, strain ACI, males, in feed, site: colon, lesion: adenoma, dosed 121 weeks, study length 121 weeks) was 72300 mg/kg/day (inactive), the TD50 (rat, strain ACI, males, in feed, site: ileum, lesion: adenoma, dosed 121 weeks, study length 121 weeks) was 72300 mg/kg/day (inactive) and the TD50 (rat, strain ACI, males, in feed, site: testis, lesion: interstitial-cell tumor, dosed 77 weeks, study length 77 weeks) was 3530 mg/kg/day (inactive). The TD50 (rat, strain Sprague-Dawley, females, by gavage, site: liver, lesion: hepatocellular carcinoma, dosed 104 weeks, study length 138 weeks) was 44800 mg/kg/day (inactive) and the carcinogen call (rat, strain Sprague-Dawley, males, by gavage, site: liver, lesion: hepatocellular carcinoma, dosed 104 weeks, study length 134 weeks) was “negative (inactive)”.
Work on O=NN1CCC(=O)NC1=O yielded a TD50 (rat, strain MRC-Wistar, females, in drinking water, site: any site (literature study), lesion: several types, types named in the paper, dosed 41 weeks, study length 70 weeks) of 0.13 mg/kg/day, a TD50 (rat, strain MRC-Wistar, females, in drinking water, site: liver, lesion: hepatocellular carcinoma, dosed 41 weeks, study length 70 weeks) of 0.104 mg/kg/day and a TD50 (rat, strain MRC-Wistar, females, in drinking water, site: liver, lesion: several types, types named in the paper, dosed 41 weeks, study length 70 weeks) of 0.104 mg/kg/day. It also gave a TD50 (rat, strain MRC-Wistar, males, in drinking water, site: any site (literature study), lesion: several types, types named in the paper, dosed 41 weeks, study length 70 weeks) of 0.125 mg/kg/day, a TD50 (rat, strain MRC-Wistar, males, in drinking water, site: liver, lesion: hepatocellular carcinoma, dosed 41 weeks, study length 70 weeks) of 0.0932 mg/kg/day and a TD50 (rat, strain MRC-Wistar, males, in drinking water, site: liver, lesion: several types, types named in the paper, dosed 41 weeks, study length 70 weeks) of 0.0932 mg/kg/day.
Work on Cc1ccc2ccccc2c1 yielded a TD50 (mouse, strain B6C3F1, females, in feed, site: liver, lesion: hepatocellular adenoma, dosed 81 weeks, study length 81 weeks) of 6060 mg/kg/day, a TD50 (mouse, strain B6C3F1, females, in feed, site: lung, lesion: several types, types named in the paper, dosed 81 weeks, study length 81 weeks) of 4010 mg/kg/day and a TD50 (mouse, strain B6C3F1, males, in feed, site: lung, lesion: alveolar/bronchiolar adenoma, dosed 81 weeks, study length 81 weeks) of 735 mg/kg/day. It also gave a TD50 (mouse, strain B6C3F1, males, in feed, site: lung, lesion: alveolar/bronchiolar carcinoma, dosed 81 weeks, study length 81 weeks) of 2780 mg/kg/day and a TD50 (mouse, strain B6C3F1, males, in feed, site: lung, lesion: several types, types named in the paper, dosed 81 weeks, study length 81 weeks) of 205 mg/kg/day.
Work on CC(O)COC(C)(C)C (stereo not drawn) yielded a TD50 (mouse, strain B6C3F1, females, inhaled, site: any site (literature study), lesion: several types, types named in the paper, dosed 104 weeks, study length 104 weeks) of 8120 mg/kg/day, a TD50 (mouse, strain B6C3F1, females, inhaled, site: liver, lesion: hepatocellular adenoma + hepatoblastoma + hepatocellular carcinoma, dosed 104 weeks, study length 104 weeks) of 1780 mg/kg/day and a TD50 (mouse, strain B6C3F1, females, inhaled, site: liver, lesion: hepatocellular adenoma + hepatocellular carcinoma, dosed 104 weeks, study length 104 weeks) of 1780 mg/kg/day. For the same compound, the TD50 (mouse, strain B6C3F1, females, inhaled, site: liver, lesion: hepatocellular adenoma, dosed 104 weeks, study length 104 weeks) was 1780 mg/kg/day, the TD50 (mouse, strain B6C3F1, males, inhaled, site: any site (literature study), lesion: several types, types named in the paper, dosed 104 weeks, study length 104 weeks) was 7930 mg/kg/day and the TD50 (mouse, strain B6C3F1, males, inhaled, site: liver, lesion: hepatoblastoma, dosed 104 weeks, study length 104 weeks) was 9320 mg/kg/day. For the same compound, the TD50 (mouse, strain B6C3F1, males, inhaled, site: liver, lesion: hepatocellular adenoma + hepatoblastoma + hepatocellular carcinoma, dosed 104 weeks, study length 104 weeks) was 1980 mg/kg/day, the TD50 (mouse, strain B6C3F1, males, inhaled, site: liver, lesion: hepatocellular adenoma + hepatocellular carcinoma, dosed 104 weeks, study length 104 weeks) was 1980 mg/kg/day and the TD50 (mouse, strain B6C3F1, males, inhaled, site: liver, lesion: hepatocellular adenoma, dosed 104 weeks, study length 104 weeks) was 1970 mg/kg/day. The carcinogen call (rat, strain Fischer 344, females, inhaled, site: any site (literature study), lesion: several types, types named in the paper, dosed 104 weeks, study length 104 weeks) was “negative (inactive)”, the TD50 (rat, strain Fischer 344, females, inhaled, site: liver, lesion: hepatocellular adenoma + hepatoblastoma + hepatocellular carcinoma, dosed 104 weeks, study length 104 weeks) was 10500 mg/kg/day and the TD50 (rat, strain Fischer 344, males, inhaled, site: any site (literature study), lesion: several types, types named in the paper, dosed 104 weeks, study length 104 weeks) was 683 mg/kg/day. For the same compound, the TD50 (rat, strain Fischer 344, males, inhaled, site: kidney, lesion: tubule adenoma + tubule carcinoma, dosed 104 weeks, study length 104 weeks) was 2280 mg/kg/day and 2650 mg/kg/day, the TD50 (rat, strain Fischer 344, males, inhaled, site: kidney, lesion: tubule adenoma, dosed 104 weeks, study length 104 weeks) was 4480 mg/kg/day and 3800 mg/kg/day and the TD50 (rat, strain Fischer 344, males, inhaled, site: liver, lesion: hepatocellular adenoma + hepatoblastoma + hepatocellular carcinoma, dosed 104 weeks, study length 104 weeks) was 1450 mg/kg/day. It also gave a TD50 (rat, strain Fischer 344, males, inhaled, site: liver, lesion: hepatocellular adenoma, dosed 104 weeks, study length 104 weeks) of 1450 mg/kg/day, a TD50 (rat, strain Fischer 344, males, inhaled, site: skin, lesion: basal-cell adenoma + basal-cell carcinoma, dosed 104 weeks, study length 104 weeks) of 1510 mg/kg/day and a TD50 (rat, strain Fischer 344, males, inhaled, site: skin, lesion: basal-cell adenoma, dosed 104 weeks, study length 104 weeks) of 2070 mg/kg/day.
For Cc1ncc([N+](=O)[O-])n1CCO, the TD50 (mouse, strain Swiss, females, in feed, site: all sites, lesion: malignant lymphoma, dosed 122 weeks, study length 128 weeks) was 1300 mg/kg/day, the TD50 (mouse, strain Swiss, females, in feed, site: liver, lesion: several types, types named in the paper, dosed 122 weeks, study length 128 weeks) was 24200 mg/kg/day (inactive) and the TD50 (mouse, strain Swiss, females, in feed, site: lung, lesion: several types, types named in the paper, dosed 122 weeks, study length 128 weeks) was 937 mg/kg/day. For the same compound, the TD50 (mouse, strain Swiss, males, in feed, site: liver, lesion: several types, types named in the paper, dosed 116 weeks, study length 124 weeks) was 20700 mg/kg/day (inactive), the TD50 (mouse, strain Swiss, males, in feed, site: lung, lesion: several types, types named in the paper, dosed 116 weeks, study length 124 weeks) was 347 mg/kg/day and the TD50 (rat, strain Sas:MRC(WI)BR, females, in feed, site: any site (literature study), lesion: several types, types named in the paper, dosed 147 weeks, study length 151 weeks) was 139 mg/kg/day. It also gave a TD50 (rat, strain Sas:MRC(WI)BR, females, in feed, site: liver, lesion: hepatocellular carcinoma, dosed 147 weeks, study length 151 weeks) of 1860 mg/kg/day, a TD50 (rat, strain Sas:MRC(WI)BR, females, in feed, site: mammary gland, lesion: fibroadenoma, dosed 147 weeks, study length 151 weeks) of 431 mg/kg/day and a TD50 (rat, strain Sas:MRC(WI)BR, females, in feed, site: mammary gland, lesion: several types, types named in the paper, dosed 147 weeks, study length 151 weeks) of 446 mg/kg/day. The carcinogen call (rat, strain Sas:MRC(WI)BR, females, in feed, site: pituitary gland, lesion: several types, types named in the paper, dosed 147 weeks, study length 151 weeks) was “negative (inactive)”, the TD50 (rat, strain Sas:MRC(WI)BR, females, in feed, site: subcutaneous tissue, lesion: several types, types named in the paper, dosed 147 weeks, study length 151 weeks) was 4050 mg/kg/day and the TD50 (rat, strain Sas:MRC(WI)BR, females, in feed, site: uterus, lesion: several types, types named in the paper, dosed 147 weeks, study length 151 weeks) was 2970 mg/kg/day (inactive). For the same compound, the TD50 (rat, strain Sas:MRC(WI)BR, males, in feed, site: any site (literature study), lesion: several types, types named in the paper, dosed 140 weeks, study length 144 weeks) was 211 mg/kg/day, the TD50 (rat, strain Sas:MRC(WI)BR, males, in feed, site: liver, lesion: hepatocellular carcinoma, dosed 140 weeks, study length 144 weeks) was 45900 mg/kg/day and the TD50 (rat, strain Sas:MRC(WI)BR, males, in feed, site: mammary gland, lesion: fibroadenoma, dosed 140 weeks, study length 144 weeks) was 2490 mg/kg/day. It also gave a TD50 (rat, strain Sas:MRC(WI)BR, males, in feed, site: pituitary gland, lesion: several types, types named in the paper, dosed 140 weeks, study length 144 weeks) of 731 mg/kg/day, a TD50 (rat, strain Sas:MRC(WI)BR, males, in feed, site: subcutaneous tissue, lesion: several types, types named in the paper, dosed 140 weeks, study length 144 weeks) of 2360 mg/kg/day and a TD50 (rat, strain Sas:MRC(WI)BR, males, in feed, site: testis, lesion: several types, types named in the paper, dosed 140 weeks, study length 144 weeks) of 993 mg/kg/day. For the same compound, the TD50 (rat, strain Sprague-Dawley, females, in feed, site: any site (literature study), lesion: several types, types named in the paper, dosed 66 weeks, study length 75 weeks) was 61.1 mg/kg/day (inactive) and the TD50 (rat, strain Sprague-Dawley, females, in feed, site: uterus, lesion: adenomyoma, dosed 66 weeks, study length 75 weeks) was 180 mg/kg/day (inactive).
